Experimental data taken from US20200399390A1, “METHODS FOR PRODUCING LYMPHOCYTE PROGENITORS” (MURDOCH CHILDRENS RESEARCH INSTITUTE, priority 2017, published 2020).

System: B-lymphocytes
Assay: B-cell progenitor production by co-culture on OP9 stromal cells
Format: cell-based, human
Method: Co-Culture Systems Involving DLL4 Stromal or OP9 Stromal Cells for Production of B-Cell Progenitors
Co-culture systems generally used alpha-MEM medium supplemented with 10˜20% fetal calf serum (FCS), Penicillin Streptomycin, L-glutamine and 2-Mercaptoethanol (0.1 mM).
Stromal cells were seeded into an appropriate number of wells of a multi-well plate and allowed to grow until they reached confluency.
At around day 15, cells were transferred onto confluent layers of OP9 or OP9-DLL4 stromal cells and cultured in the following conditions:
Medium: alpha-MEM medium supplemented with 5˜10% FCS, penicillin streptomycin, L-glutamine and 2-mercaptoethanol (0.1 mM)
Cytokines: SCF (50 ng/mL) and DAPT (10 uM).
Media was changed every 4˜5 days.
Every 7˜10 days, the culture was passaged onto new wells coated with fresh layers of stromal cells.
As an alternative to using OP9 stromal cells expressing DLL4 (DLL4-0P9) for B-cell progenitor production according to Example 1, which requires addition of a NOTCH1 inhibitor such as DAPT to the culture medium to permit B-cell development, OP9 stromal cells (without DLL4) can also be used (FIG. 20). This system generates a larger number of B-cell progenitors (FIG. 20B), a small fraction of which (˜1%) are IgM^+ (FIG. 20B). This frequency of IgM^+ cells is similar to that seen with cord blood CD34^+ cells cultured in similar systems.

C[C@H](NC(=O)Cc1cc(F)cc(F)c1)C(=O)N[C@H](C(=O)OC(C)(C)C)c1ccccc1 [DAPT, N—[N-(3,5-difluorophenacetyl)-L-alanyl]-S-phenylglycine t-butyl ester]
effect of presence of DAPT on development of B-lymphocytes (OP9 stromal cell co-culture, SCF (50 ng/mL) and DAPT (10 uM), from around day 15): enhances the development of B-lymphocytes
effect of addition of DAPT on B-cell progenitor generation (OP9 stromal cells (without DLL4), FIG. 20): further enhanced
